This is an account of results in patent US10300071B2, “Compositions and methods for inhibition of mycobacteria” (priority 2014, dated 2019).

The target of the assay is Mtb AccD6 (Mycobacterium tuberculosis, UniProt P9WQH5). Description: biochemical. It counts as biochemical. As to conditions: for IC50: 300 μM malonyl-CoA, inhibitor 10 μM to 2000 μM, read-out: IC50.

Structures are written as SMILES. Read-outs that look alike come from different tables or passages of the source.

Sequence of Mtb AccD6 (P9WQH5 whole entry, looked up): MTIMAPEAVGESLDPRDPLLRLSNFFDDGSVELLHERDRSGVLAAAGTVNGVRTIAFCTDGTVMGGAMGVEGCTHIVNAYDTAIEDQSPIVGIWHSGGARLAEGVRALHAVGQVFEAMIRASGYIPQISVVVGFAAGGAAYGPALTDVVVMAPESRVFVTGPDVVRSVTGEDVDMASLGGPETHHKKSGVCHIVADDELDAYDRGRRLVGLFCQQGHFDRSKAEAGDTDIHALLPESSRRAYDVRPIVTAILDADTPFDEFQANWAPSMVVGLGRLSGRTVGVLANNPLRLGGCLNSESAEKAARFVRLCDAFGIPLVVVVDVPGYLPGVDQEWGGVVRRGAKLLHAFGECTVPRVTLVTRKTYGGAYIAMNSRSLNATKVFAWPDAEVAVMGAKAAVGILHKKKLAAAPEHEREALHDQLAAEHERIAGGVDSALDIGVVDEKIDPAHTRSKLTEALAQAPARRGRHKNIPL

In the case of `C[C@@H](Oc1ccc(Oc2nc3ccc(Cl)cc3s2)cc1)C(=O)O` [NZ-247, (2R)-2-{4-[(6-chloro-1,3-benzothiazol-2-yl)oxy]phenoxy}propanoic acid], the IC50 was 2.5 µM.

Regarding `C[C@@H](Oc1ccc(Oc2nc3ccc(Br)cc3s2)cc1)C(=O)O` [NZ-253, (2R)-2-{4-[(6-bromo-1,3-benzothiazol-2-yl)oxy]phenoxy}propanoic acid], the IC50 was greater than 15 µM.

Turning to `C[C@@H](Oc1ccc(Oc2nc3ccccc3s2)cc1)C(=O)O` [NZ-254, (2R)-2-[4-(1,3-benzothiazol-2-yloxy)phenoxy]propanoic acid], the IC50 is greater than 15 µM.

Consider `C[C@@H](Oc1ccc(Oc2nc3ccc(F)cc3s2)cc1)C(=O)O` [NZ-255, (2R)-2-{4-[(6-fluoro-1,3-benzothiazol-2-yl)oxy]phenoxy}propanoic acid], for which the IC50 was found to be 1.2 µM. Still for that read-out and setting: then `O=C(O)COc1ccc(Oc2cnc3cc(Cl)ccc3n2)cc1` [NZ-257, 2-{4-[(6-chloroquinoxalin-2-yl)oxy]phenoxy}acetic acid], with 1.5 to 1.9 µM; and `C[C@@H](Oc1ccc(Oc2nc3ccc([N+](=O)[O-])cc3s2)cc1)C(=O)O` [NZ-261, (2R)-2-{4-[(6-nitro-1,3-benzothiazol-2-yl)oxy]phenoxy}propanoic acid], with 1.8 µM; and `CN1CCN(C(=O)Cc2ccc(Oc3nc4cc(F)c(F)cc4s3)cc2)CC1` [NZ-409, 2-{4-[(5,6-difluoro-1,3-benzothiazol-2-yl)oxy]phenyl}-1-(4-methylpiperazin-1-yl)ethan-1-one], with 0.66 µM. The same measure, in the same setting: then `CNC(=O)Cc1ccc(Oc2nc3ccc(F)cc3s2)cc1F` [NZ-410, 2-{2-fluoro-4-[(6-fluoro-1,3-benzothiazol-2-yl)oxy]phenyl}-N-methylacetamide], with 0.38 µM; and `CNC(=O)Cc1ccc(Oc2nc3cc(F)c(F)cc3s2)cc1F` [NZ-411, 2-{4-[(5,6-difluoro-1,3-benzothiazol-2-yl)oxy]-2-fluorophenyl}-N-methylacetamide], with 0.24 µM. `CC(C)(C)OC(=O)Nc1ccc(Oc2nc3ccc(F)cc3s2)cc1` [NZ-412, terl-butyl N-{4-[(6-fluoro-1,3-benzothiazol-2-yl)oxy]phenyl}carbamate]: under “read-out: inhibition at 20 uM”, the inhibition at 20 µM came to 17%.

Take `Nc1ccc(Oc2nc3ccc(F)cc3s2)cc1` [NZ-413, 4-[(6-fluoro-1,3-benzothiazol-2-yl)oxy]aniline]: the IC50 was 14 µM. Consider `CC(C)(C)OC(=O)NCC(=O)Nc1ccc(Oc2nc3ccc(F)cc3s2)cc1` [NZ-415, tert-butyl N-[({4-[(6-fluoro-1,3-benzothiazol-2-yl)oxy]phenyl}carbamoyl)methyl]carbamate], for which the IC50 amounted to 20 µM.

`NCCC(=O)Nc1ccc(Oc2nc3ccc(F)cc3s2)cc1` [NZ-416, 3-amino-N-{4-[(6-fluoro-1,3-benzothiazol-2-yl)oxy]phenyl}propanamide]: the inhibition at 20 µM (read-out: inhibition at 20 uM) was 20%. As to `NCC(=O)Nc1ccc(Oc2nc3ccc(F)cc3s2)cc1` [NZ-417, 2-amino-N-{4-[(6-fluoro-1,3-benzothiazol-2-yl)oxy]phenyl}acetamide], for the setting “read-out: inhibition at 20 uM”, the inhibition at 20 µM turned out to be 10%. `CONC(=O)CN1CCC(Oc2nc3ccc(Cl)cc3s2)CC1` [WUXI-N4, 2-{4-[(6-chloro-1,3-benzothiazol-2-yl)oxy]piperidin-1-yl}-N-methoxyacetamide]: the “inhibition at 20 uM” value (20 uM) was “No inhibition at 20 uM”. Same read-out and setting: the value for `CONC(=O)CCN1CCC(Oc2nc3ccc(Cl)cc3s2)CC1` [WUXI-N5, 3-{4-[(6-chloro-1,3-benzothiazol-2-yl)oxy]piperidin-1-yl}-N-methoxypropanamide] was “No inhibition at 20 uM”. As to `CC(C)NC(=O)Nc1ccc(Oc2nc3ccc(Cl)cc3s2)nc1` [WuXi-N6, 1-{6-[(6-chloro-1,3-benzothiazol-2-yl)oxy]pyridin-3-yl}-3-(propan-2-yl)urea], the inhibition at 20 µM is, setting by setting: (20 uM, pH 8.0, read-out: inhibition at 20 uM- pH 8.0) 11%; (20 uM, pH 8.5, read-out: inhibition at 20 uM- pH 8.5) 17%.

For `CC(C)NC(=O)Nc1ccc(Oc2nc3ccc(Cl)cc3s2)nn1` [WuXi-N7, 1-{6-[(6-chloro-1,3-benzothiazol-2-yl)oxy]pyridazin-3-yl}-3-(propan-2-yl)urea], the inhibition at 20 µM (read-out: inhibition at 20 uM) turned out to be 18%.

The term IC50 denotes the concentration that inhibits the measured activity by half. As usually defined, the inhibition is the share of the control response that was lost under treatment.
